Experiments:
BPH-1 cells = assay: BPH-1 cell growth; format: cell-based; conditions: 0.25 μM and 1 μM, FIG. 12
Experimental: (§1) Approximately 48 hours following plating of cells, the appropriate test compound is added to each well of the tissue culture dish at a predetermined concentration. The medium was replenished every 24 hours with fresh growth medium containing the same concentration of the same test compound for indicated period of the cell growth inhibition assay. Percent cell growth inhibition was calculated using a hemocytometer for estimating cell density in each of the test wells of the tissue culture dish and trypan blue dye exclusion microscopy and photography to estimate the fraction of viable cells in each test well.

ERG protein [1] = target: T1, ERG protein (Homo sapiens, UniProt P11308); assay: Inhibition of ERG protein in HUVEC normal endothelial cells (Western blot); format: cell-based; conditions: 0.25 μM and 1 μM, FIG. 10
T1 sequence (P11308 1-479): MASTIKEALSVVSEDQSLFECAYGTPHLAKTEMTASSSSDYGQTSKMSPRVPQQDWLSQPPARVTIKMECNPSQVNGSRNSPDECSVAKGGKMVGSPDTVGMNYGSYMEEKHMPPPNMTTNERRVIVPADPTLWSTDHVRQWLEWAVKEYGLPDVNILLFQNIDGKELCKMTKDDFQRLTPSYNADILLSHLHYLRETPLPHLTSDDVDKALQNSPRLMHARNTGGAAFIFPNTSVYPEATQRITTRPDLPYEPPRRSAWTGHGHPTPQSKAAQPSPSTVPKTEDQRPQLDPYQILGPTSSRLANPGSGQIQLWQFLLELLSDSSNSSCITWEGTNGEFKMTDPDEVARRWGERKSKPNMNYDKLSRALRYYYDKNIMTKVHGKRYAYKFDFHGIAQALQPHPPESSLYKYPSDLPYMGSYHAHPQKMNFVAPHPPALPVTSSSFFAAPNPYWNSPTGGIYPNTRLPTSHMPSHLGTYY
Experimental: (§2) Inhibition of ERG protein expression by the test compounds were determined by Western blot analysis. The ERG specific monoclonal antibody CPDR ERG-MAb was used as the primary antibody. In brief, Western blot was performed by running a fixed amount of total protein extracted from cell lysates of the treated cells using (4-12% Bis-Tris) gel by electrophoresis, followed by transfer to membrane and incubation with primary antibody and continued with HRP-conjugated secondary antibody. Cultured cells were treated at specific dosages with each of the tested ERG inhibitors. Following incubation of the treated cells for an indicated time period, cells were lysed using Mammalian Protein Extraction Reagent (M-PER; Pierce, Rockford, Ill.) containing a protease inhibitor cocktail and phosphatase inhibitor cocktails I & III (Sigma, St Louis, Mo.). Cell lysates containing 50 μg of total protein were electrophoresed through 4-12% Bis-Tris Gel (Invitrogen, Carlsbad, Calif.) and the cellular proteins were transferred to PVDF membrane (Invitrogen, Carlsbad, Calif.). Membranes were incubated at 4° C. for 12 hours with primary antibodies for AR, PSA, GAPDH, α-Tubulin, apoptosis markers and cell cycle regulators. […]

ERG protein [2] = target: T2, ERG protein (Homo sapiens, UniProt P11308); assay: Inhibition of ERG protein in VCaP cells (Western blot); format: cell-based; conditions: for inhibition of ERG protein in VCaP cells: 0.1, 0.2, 0.4, 0.6, 0.8 and 1 μM, FIG. 13, 16; for inhibition of endogenous ERG protein: VCaP, 0.25 μM and 1 μM, FIG. 2
T2 construct: host or cells: VCaP
T2 sequence (P11308 33-479 limits assumed): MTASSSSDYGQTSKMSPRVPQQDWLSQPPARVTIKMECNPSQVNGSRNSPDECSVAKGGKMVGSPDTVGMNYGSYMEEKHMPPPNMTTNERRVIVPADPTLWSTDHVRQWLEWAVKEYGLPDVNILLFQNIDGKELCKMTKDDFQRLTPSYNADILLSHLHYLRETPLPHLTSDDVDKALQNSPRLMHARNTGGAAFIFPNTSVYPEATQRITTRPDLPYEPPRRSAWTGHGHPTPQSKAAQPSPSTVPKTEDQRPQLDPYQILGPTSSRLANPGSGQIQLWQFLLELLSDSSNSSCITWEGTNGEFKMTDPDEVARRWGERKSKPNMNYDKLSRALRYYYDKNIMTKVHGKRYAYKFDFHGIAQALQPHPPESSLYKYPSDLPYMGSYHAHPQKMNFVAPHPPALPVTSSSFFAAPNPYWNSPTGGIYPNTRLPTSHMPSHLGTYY
Experimental: The TMPRSS2-ERG fusion positive prostate cancer cell line, VCaP (ATCC), was used to identify the test compound inhibitors of ERG expression. Cells were grown in medium using conditions prescribed by the vendor. VCaP cells in logarithmic growth were seeded in a tissue culture dish at a cell density of 2×10^6 cells per plate. Following 48 hours incubation at 37° C., cells were exposed for a period of 48 hours with 0, 0.05, 0.25 and 0.5 μM concentrations of each test azophenol compound. The inhibition of ERG expression was evaluated by an In-cell Western blot assay (LI-COR Biosciences, Lincoln, Nebr.) using the ERG specific CPDR ERG-MAb as further described below.
Inhibition of ERG protein expression by the test compounds were determined by Western blot analysis. The ERG specific monoclonal antibody CPDR ERG-MAb was used as the primary antibody. In brief, Western blot was performed by running a fixed amount of total protein extracted from cell lysates of the treated cells using (4-12% Bis-Tris) gel by electrophoresis, followed by transfer to membrane and incubation with primary antibody and continued with HRP-conjugated secondary antibody. Cultured cells were treated at specific dosages with each of the tested ERG inhibitors. Following incubation of the treated cells for an indicated time period, cells were lysed using Mammalian Protein Extraction Reagent (M-PER; Pierce, Rockford, Ill.) containing a protease inhibitor cocktail and phosphatase inhibitor cocktails I & III (Sigma, St Louis, Mo.). Cell lysates containing 50 μg of total protein were electrophoresed through 4-12% Bis-Tris Gel (Invitrogen, Carlsbad, Calif.) and the cellular proteins were transferred to PVDF membrane (Invitrogen, Carlsbad, Calif.). Membranes were incubated at 4° C. for 12 hours with primary antibodies for AR, PSA, GAPDH, α-Tubulin, apoptosis markers and cell cycle regulators. Following exposure to primary antibodies, the membranes were washed with buffer (3×, 5 minutes each at room temperature) followed by incubation with relevant secondary antibodies for 1 hour at 24° C. Finally, the membranes were washed with buffer and developed using the ECL Western blot detection reagent (GE Health Care, Buckinghamshire, UK). The ERG protein expression of the test azophenol compounds were normalized with GAPDH.
In brief, ERG positive VCaP cells in loganthmic growth phase were plated in 10 cm tissue culture dish at a cell density of 2×10^6 cells per dish. The plated cells were treated with 0, 0.2, 0.4, 0.6, 0.8 and 1 μM concentrations of each azophenol compound for a period of 48 hours. Cells from each dish were then processed for Western blot analysis and alterations in the expression of ERG protein were monitored. Both ERG and GAPDH protein band were quantified from each concentration using Image J (NIH) and ERG band density was normalized with corresponding GAPDH protein control. Relative density of ERG in each concentration was calculated and with Graphpad Prism 6 software, the IC50 of each compound was calculated.

AR [3] = assay: Inhibition of endogenous AR protein in LNCaP cells (Western blot); format: cell-based; conditions: ERG negative LNCaP; 0.25 μM and 1 μM; FIG. 4
Experimental: (§3) To investigate whether the azophenol compounds of the invention are selective inhibitors of ERG protein expression, representative azophenol compounds were further tested for its ability to inhibit AR and PSA activity in the following AR positive/ERG negative prostate cancer cell lines: LNCaP (mutant AR positive and ERG negative), as well as in LAPC4 cells that are AR (wild type) positive and ERG negative.
as §2, with “Mo.).” for “Mo.). Cell lysates containing 50 μg of total protein were electrophoresed through 4-12% Bis-Tris Gel (Invitrogen, Carlsbad, Calif.) and the cellular proteins were transferred to PVDF membrane (Invitrogen, Carlsbad, Calif.). Membranes were incubated at 4° C. for 12 hours with primary antibodies for AR, PSA, GAPDH, α-Tubulin, apoptosis markers and cell cycle regulators.”

HUVEC = HUVEC cell growth; format: cell-based, human; conditions: 0.25 μM and 1 μM, FIG. 11
Experimental: as §1

RIOK2 protein [4] = target: T3, RIOK2 protein (Homo sapiens, UniProt Q9BVS4); assay: Inhibition of RIOK2 protein in VCaP cells (Western blot); format: cell-based; parameters: host or cells: VCaP; conditions: 0.1, 0.2, 0.4, 0.6, 0.8 and 1 μM; FIG. 14, 17
T3 sequence (Q9BVS4 whole entry): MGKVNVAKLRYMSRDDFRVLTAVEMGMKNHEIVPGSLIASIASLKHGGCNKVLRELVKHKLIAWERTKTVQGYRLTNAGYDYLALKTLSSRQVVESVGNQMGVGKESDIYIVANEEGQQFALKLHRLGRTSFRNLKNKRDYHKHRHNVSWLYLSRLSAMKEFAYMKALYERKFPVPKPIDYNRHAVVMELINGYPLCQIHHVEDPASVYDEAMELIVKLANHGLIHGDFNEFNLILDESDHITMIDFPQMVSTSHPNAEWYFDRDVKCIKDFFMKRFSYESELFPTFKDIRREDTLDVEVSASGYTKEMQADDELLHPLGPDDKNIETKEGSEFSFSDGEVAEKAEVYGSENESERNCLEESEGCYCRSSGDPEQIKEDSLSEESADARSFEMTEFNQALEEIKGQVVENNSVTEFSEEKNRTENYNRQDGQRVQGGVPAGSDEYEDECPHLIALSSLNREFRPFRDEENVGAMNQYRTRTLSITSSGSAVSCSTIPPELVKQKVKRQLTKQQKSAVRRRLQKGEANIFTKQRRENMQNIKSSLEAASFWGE

RWPE-1 cells = assay: RWPE-1 cell growth; format: cell-based; conditions: 0.25 μM and 1 μM, FIG. 12
Experimental: as §1

AR [5] = assay: Inhibition of endogenous AR protein in LAPC-4 cells (Western blot); format: cell-based; conditions: ERG negative LAPC-4; 0.25 μM and 1 μM; FIG. 6
Experimental: as §3
as §2, with “Mo.).” for “Mo.). Cell lysates containing 50 μg of total protein were electrophoresed through 4-12% Bis-Tris Gel (Invitrogen, Carlsbad, Calif.) and the cellular proteins were transferred to PVDF membrane (Invitrogen, Carlsbad, Calif.). Membranes were incubated at 4° C. for 12 hours with primary antibodies for AR, PSA, GAPDH, α-Tubulin, apoptosis markers and cell cycle regulators.”

COLO320 cells = assay: COLO320 cell growth; format: cell-based; conditions: 0.25 μM and 1 μM, FIG. 9
Experimental: as §1

PSA [6] = assay: Inhibition of endogenous PSA protein in LNCaP cells (Western blot); format: cell-based; conditions: ERG negative LNCaP; 0.25 μM and 1 μM; FIG. 4
Experimental: as §3
as §2, with “Mo.).” for “Mo.). Cell lysates containing 50 μg of total protein were electrophoresed through 4-12% Bis-Tris Gel (Invitrogen, Carlsbad, Calif.) and the cellular proteins were transferred to PVDF membrane (Invitrogen, Carlsbad, Calif.). Membranes were incubated at 4° C. for 12 hours with primary antibodies for AR, PSA, GAPDH, α-Tubulin, apoptosis markers and cell cycle regulators.”

LAPC-4 cells = assay: LAPC-4 cell growth; format: cell-based; conditions: 0.25 μM and 1 μM, FIG. 7
Experimental: as §1

AR [7] = assay: Inhibition of endogenous AR protein in VCaP cells (Western blot); format: cell-based; conditions: 0.25 μM and 1 μM, FIG. 2
Experimental: as §2

ERG protein [8] = target: T1, ERG protein; assay: Inhibition of endogenous ERG protein in COLO320 cells (Western blot); format: cell-based; parameters: host or cells: COLO320; conditions: 0.25 μM and 1 μM, FIG. 8
Experimental: as §2

VCaP cells = assay: VCaP cell growth inhibition; format: cell-based; conditions: for inhibition of VCaP cell growth: 0.1, 0.2, 0.4, 0.6, 0.8 and 1 μM, FIG. 15, 18; for inhibition of the growth of ERG harboring prostate cancer cells: VCaP, 0.25 μM and 1 μM, FIG. 3
Experimental: as §1
To investigate whether the azophenol compounds selectively arrested the growth of ERG positive cancer cells (VCaP), VCaP cells were cultured to achieve cells in logarithmic growth and these cells were then plated in 6 well tissue culture dishes in duplicates at a cell density of 0.2×10^6 cells per well. The plated cells were exposed to 0, 0.2, 0.4, 0.6, 0.8 and 1 μM concentrations of each compound for a period of 8 days. At the end of time period, cells were recovered from the test plate, washed, trypsinized and the cell density of viable cells were determined with trypan blue dye staining method and automated cell counter Bio-Rad TC10. The IC50 of cell growth inhibition of each compound was determined by trypsinizing the cells at the end of the experiment and counting the cells by using the automated cell counter (Bio-Rad TC10 automated cell counter). The average cell numbers of each concentration were used to calculate the IC50 of each compound with the GraphPad Prism 6 software.

PSA [9] = assay: Inhibition of endogenous PSA protein in VCaP cells (Western blot); format: cell-based; conditions: 0.25 μM and 1 μM, FIG. 2
Experimental: as §2

LNCaP cells = assay: LNCaP cell growth; format: cell-based; conditions: 0.25 μM and 1 μM, FIG. 5
Experimental: as §1

RIOK2 protein [10] = target: T3, RIOK2 protein; assay: Inhibition of RIOK2 protein in HUVEC normal endothelial cells (Western blot); format: cell-based; parameters: ERG and RIOK2 proteins in endogenous ERG expressing normal endothelial cells (HUVEC); host or cells: HUVEC; conditions: 0.25 μM and 1 μM, FIG. 10
RIOK2 protein [11] = target: T3, RIOK2 protein; assay: Inhibition of endogenous RIOK2 protein in COLO320 cells (Western blot); format: cell-based; conditions: 0.25 μM and 1 μM, FIG. 8

Compound | growth of ERG negative prostate-derived immortalized cells (BPH-1 cells) | inhibition of ERG protein (ERG protein [1]) | inhibition of ERG protein in VCaP cells (ERG protein [2]) | inhibition of endogenous ERG protein (ERG protein [2]) | inhibition of endogenous AR protein (AR [3]) | growth of ERG harboring normal endothelial cells (HUVEC) | inhibition of RIOK2 protein in VCaP cells (RIOK2 protein [4]) | growth of ERG negative prostate-derived immortalized cells (RWPE-1 cells) | inhibition of endogenous AR protein (AR [5]) | inhibition of growth of ERG harboring colon cancer cells (COLO320 cells) | inhibition of endogenous PSA protein (PSA [6]) | growth of ERG negative prostate cancer cells (LAPC-4 cells) | inhibition of endogenous AR protein (AR [7]) | inhibition of endogenous ERG protein (ERG protein [8]) | inhibition of VCaP cell growth (VCaP cells) | inhibition of the growth of ERG harboring prostate cancer cells (VCaP cells) | inhibition of endogenous PSA protein (PSA [9]) | growth of ERG negative prostate cancer cells (LNCaP cells) | inhibition of RIOK2 protein (RIOK2 protein [10]) | inhibition of endogenous RIOK2 protein (RIOK2 protein [11])
CC(C)c1ccc(O)c(N=Nc2nccs2)c1 [Compound 1] | do not affect the growth | lack of inhibition | inhibition | inhibition | lack of inhibition | do not affect the growth | inhibition | do not affect the growth | do not inhibit | inhibition | lack of inhibition | do not affect the growth | inhibition | inhibition | inhibition | inhibition | inhibition | do not affect the growth | lack of inhibition | inhibition
Cc1ccc(O)c(N=Nc2nccs2)c1 [Compound 2] | do not affect the growth | lack of inhibition | inhibition | inhibition | lack of inhibition | do not affect the growth | inhibition | do not affect the growth | do not inhibit | inhibition | lack of inhibition | do not affect the growth | inhibition | inhibition | inhibition | inhibition | inhibition | do not affect the growth | lack of inhibition | inhibition

— patent US11648239B2, “Azophenols as ERG oncogene inhibitors” (The Henry M. Jackson Foundation for the Advancement of …, priority 2015, dated 2023)
